Assay results from US20240239774A1, “SOLUBLE ADENYLYL CYCLASE (SAC) INHIBITORS AND USES THEREOF” (Cornell University, priority 2021, published 2024).

System: mouse sperm
Assay: Acrosome reaction assay
Type: cell-based
Conditions: 5 μM Example 1 or 10 nM Example 133; capacitating media 90 minutes
Method: Zonae pellucidae were isolated from female mice superovulated by intraperitoneal injection of 10 I.U. […] 3 days before the experiment. 14 hours before oocyte isolation, mice were injected with 10 I.U. […]. Oviducts were collected following cervical dislocation. Cumulus-enclosed oocytes were separated from the oviducts and placed into TYH buffer containing 300 μg/ml hyaluronidase. After 15 minutes, cumulus-free oocytes were transferred into fresh buffer and washed twice. Zonae pellucidae and oocytes were separated by shear forces generated by expulsion from […] pasteur pipettes. Zona pellucidae were counted, transferred into fresh buffer and heat-solubilized by incubation for 10 minutes at 65° C.
For analysis of acrosomal exocytosis, 100 μl of 1×10^7 sperm/ml were capacitated for 90 minutes in TYH buffer supplemented with 3 mg/ml BSA and 25 mM NaHCO3 (mouse sperm) or HTF buffer supplemented with […] HSA and 25 mM NaHCO3 (human sperm). sAC inhibitors were added with capacitating buffer; 0.1% DMSO was used as vehicle control. […] After curing, slides were analyzed using a Zeiss LSM 880 Laser Scanning Confocal Microscope; images were captured with two photomultiplier and one Gallium Arsenide Phosphide detector using ZEN Imaging software. For each condition, at least 600 cells were analyzed using ImageJ 1.52.

Nc1nc(Cl)cc(-c2nn(C(F)F)cc2Cc2ccccc2OCCN2CCOC[C@H]2CO)n1 [Example 133]
blocking acrosome reaction induced by zona pellucidae: more potent than Example 1
